# Where two headings read alike, the source gives them in different places.
# Assays:
# [1] = Aqueous solubility of avanafil by HPLC at a range of pH values; format: physicochemical; settings: sodium carbonate buffer, thermodynamic from solid, Solution 10, 0.1N Na2CO3, pH 10.0
# [2] = as above; format: physicochemical; settings: thermodynamic from solid
# Procedure: A high performance liquid chromatography (HPLC) procedure was used to evaluate the aqueous solubility of avanafil (obtained from Tanabe Seiyaku Co., LTD, purity, 97.0% to 103% with an observed purity of 98.89%; particle diameter, 10-20 microns with median observed particle diameter of 18.47 microns) at a range of pH values. The HPLC conditions were as follows: system, HP Model 1100; analytical column, Supelco Kromasil C8, 4.6 mm×250 mm, 5 μm particle size; assay injection volume, 20 μl; stock stability injection volume, 0.5 μl; needle wash volume, 91 μl; mobile phase flow rate, 1.00 ml/minute; column temperature, 30° C.; detection wavelength 246 nm; flow cell path length, 10 mm; range step 2.00 nm; threshold, 1.00 mAU; stop time, 30 minutes. Solutions 1, 2, 3, 6, 7, 8, 11, and 12 were buffered to pH values of 0.99, 2.00, 3.00, 6.00, 7.00, 8.00, 11.0, and 12.0, respectively, using a phosphate buffer, 0.1M KH2PO4. Solutions 4 and 5 were buffered to pH values of 4.00 and 5.00, respectively, using a sodium acetate buffer, 0.1M NaOAc, while solutions 9 and 10 were respectively buffered to pH values of 9.00 and 10.00 using a sodium carbonate buffer, 0.1M Na2CO3.
# [3] = cited from earlier work
structure (smiles),measurement,setting,value
"COc1ccc(CNc2nc(N3CCC[C@H]3CO)ncc2C(=O)NCc2ncccn2)cc1Cl [avanafil, 4-[(3-chloro-4-methoxybenzyl)amino]-2-[2-(hydroxymethyl)-1-pyrrolidinyl]-N-(2-pyrimidinylmethyl)-5-pyrimidinecarboxamide]",solubility,[1],< 0.05 µg/mL
same,solubility,"[2]; phosphate buffer, aqueous buffer, Solution 1, 0.1M KH2PO4, pH 0.999",> 199000 µg/mL
same,solubility,"[2]; phosphate buffer, aqueous buffer, Solution 2, 0.1M KH2PO4, pH 2.00",35000 µg/mL
same,solubility,"[2]; phosphate buffer, aqueous buffer, Solution 3, 0.1M KH2PO4, pH 3.00",1700 µg/mL
same,solubility,"[2]; phosphate buffer, aqueous buffer, Solution 6, 0.1M KH2PO4, pH 6.00",1.28 µg/mL
same,solubility,"[2]; phosphate buffer, aqueous buffer, Solution 7, 0.1M KH2PO4, pH 7.00",0.233 µg/mL
same,solubility,"[2]; phosphate buffer, aqueous buffer, Solution 8, 0.1M KH2PO4, pH 8.00",0.052 µg/mL
same,solubility,"[2]; phosphate buffer, aqueous buffer, Solution 11, 0.1M KH2PO4, pH 11.0",0.0568 µg/mL
same,solubility,"[2]; phosphate buffer, aqueous buffer, Solution 12, 0.1M KH2PO4, pH 12.0",< 0.05 µg/mL
same,solubility,"[2]; sodium acetate buffer, aqueous buffer, Solution 4, 0.1M NaOAc, pH 4.00",344 µg/mL
same,solubility,"[2]; sodium acetate buffer, aqueous buffer, Solution 5, 0.1M NaOAc, pH 5.00",19.5 µg/mL
same,solubility,"[2]; sodium carbonate buffer, aqueous buffer, Solution 9, 0.1M Na2CO3, pH 9.00",< 0.05 µg/mL
same,solubility,"[2]; water, ASTM Type II H2O, no buffer",0.139 µg/mL
same,mean reduction in Cmax,[3]; 100 mg with a high fat meal,24%
same,mean reduction in Cmax,[3]; 200 mg with a high fat meal,39%
same,route of clearance,"[3]; result in words, mainly CYP3A4, minor extent CYP2C isoform",cleared predominantly by hepatic metabolism
same,decrease in AUC,[3]; taken with a high fat meal,~3.8%
